Where two headings read alike, the source gives them in different places.
Tests used:
[1] = tested on: Pseudomonas aeruginosa (P. aeruginosa); experiment: Ex vivo biodistribution in osteomyelitis foreign body rat model with P. aeruginosa infection vs inflammation model; design: species or system rats; conditions: 120 minutes post-injection, comparable SUVs except bladder and feces (FIG. 35)
Description: The acquired PET images were visualized and analyzed for quantifying standardized uptake value (SUV) using image analysis software—MIM 7 software and PMOD. Following final imaging at 120 minutes post-injection, the animal was euthanized, and major organs and infected and inflamed tibia were extracted for gamma counting for ex-vivo biodistribution analysis (see FIG. 22). At the end of last imaging session, rats were euthanized by cardiectomy, and the operated tibia with K-wire or contralateral tibia were aseptically removed. Following removal, tibias were weighed, and Ga-68 radioactivity was counted in 2480 Wizard2 automatic gamma counter for ex-vivo biodistribution assessment. The tibias were then frozen to −80° C. The frozen tibia from each animal was crushed aseptically using a bone pulverizer chilled at −80° C. The crushed tibia without K wire was weighed and vortexed in 1 mL sterile saline. The K wire was also vortexed in 1.0 mL sterile saline separately. The vortexed tibia and K-wire saline suspension were sonicated for 5 minutes. After sonication, 1:10 serial dilutions were prepared in saline and 0.1 mL of each dilution was plated in Trypticase Soy Agar plates with 5% Sheep Blood (TSA II). After 24 hours of incubation at 37° C., the bacterial cultures in tibia suspension and K-wire suspension were quantified. […]

[2] = tested on: Methicillin-resistant Staphylococcus aureus (MRSA); format: in vivo, rats; conditions: PET image analysis, p<0.05 (FIG. 30)
[3] = tested on: E coli; experiment: Biodistribution in thigh infected mice (E. coli) at 120 min post injection; format: in vivo; conditions: n = 4, 2 h post infection with E coli
Description: The feasibility of the developed PET probe [^68Ga]Ga-H3P2O8 in a mouse model of thigh infection as well as uptake in E. coli has been evaluated. […] The biodistribution of developed PET probe in normal and in thigh infected mice has been assessed (see FIG. 11). […] Micro-PET imaging of normal and thigh-infected mice has also been performed. The site of bacterial infection was evident on micro-PET images (see FIG. 13) with arrows in contrast to the non-infected group of mice. The bacterial site of infection on micro-PET images was confirmed by bacterial culture performed on the biopsied sample. Micro-PET imaging was performed at different time intervals to optimize imaging time.

[4] = tested on: Methicillin-resistant Staphylococcus aureus (MRSA); format: in vivo, rats; conditions: for SUV (Average ± SD), Contralateral Tibia / SUV (Average ± SD), Infected Tibia / SUV (Average ± SD), Muscle: Osteomyelitis Foreign Body model
Description: The PET probe [^68Ga]Ga-H3P2O8 was evaluated in methicillin-resistant S. aureus (MRSA) foreign-body osteomyelitis in the left tibia with a stainless steel Kirschner wire (K-wire) implant in male Wister rats, following a previously established protocol [Ref. 17]. Briefly, a 1 cm incision was made on the medial tibia and the bone exposed. A 1.5 mm hole was drilled, 0.01 mL of arachidonic acid (a sclerosing agent) and 0.05 mL of a suspension containing MRSA DRL-6169 at 10^8 cfu/mL was injected into the bone. A 5 mm threaded stainless-steel K-wire was inserted. The hole was closed with dental gypsum and the site closed. After implantation, the muscle and fascia were closed with 3-0 vicryl using simple interrupted sutures. The skin was closed with sterile wound clips and VetBond. The wound was sprayed with Aluspray and Chew Guard. After 7 days of implantation of wire, the animal was put on iron-deficient diet for 7 days and on the day of imaging, the animals were fasted for 4 hours prior to the injection of the PET probe. [^68Ga]Ga-H3P2O8 (32.81±6.28 MBq, n=18) were injected into the rat model via tail vein injection. The rat model was either a normal rat model or an osteomyelitis foreign body rat model or an inflamed foreign body rat model. PET/CT images were acquired at 15 minutes, 30 minutes, 60 minutes, and 120 minutes post-injection using Siemens Inveon MicroPET/CT Scanner (see FIGS. 17, 18, and Table 2).
The acquired PET images were visualized and analyzed for quantifying standardized uptake value (SUV) using image analysis software—MIM 7 software and PMOD. Following final imaging at 120 minutes post-injection, the animal was euthanized, and major organs and infected and inflamed tibia were extracted for gamma counting for ex-vivo biodistribution analysis (see FIG. 22). At the end of last imaging session, rats were euthanized by cardiectomy, and the operated tibia with K-wire or contralateral tibia were aseptically removed. Following removal, tibias were weighed, and Ga-68 radioactivity was counted in 2480 Wizard2 automatic gamma counter for ex-vivo biodistribution assessment. The tibias were then frozen to −80° C. The frozen tibia from each animal was crushed aseptically using a bone pulverizer chilled at −80° C. The crushed tibia without K wire was weighed and vortexed in 1 mL sterile saline. The K wire was also vortexed in 1.0 mL sterile saline separately. The vortexed tibia and K-wire saline suspension were sonicated for 5 minutes. After sonication, 1:10 serial dilutions were prepared in saline and 0.1 mL of each dilution was plated in Trypticase Soy Agar plates with 5% Sheep Blood (TSA II). After 24 hours of incubation at 37° C., the bacterial cultures in tibia suspension and K-wire suspension were quantified. In the 2-week-old osteomyelitis model used in the study, the infected tibia contained 7.00±0.19 log10 cfu/g tibia (n=10) and 5.41±0.40 log10 cfu/K-wire (n=10).

[5] = tested on: E coli; experiment: Biodistribution in lung infected mice (E. coli) at 120 min post injection; format: in vivo
[6] = n = 3, 2 h post infection with E coli

`O=P(O)(O)[O][Ga]1[O]P(=O)(O)[O]1` [[^68Ga]Ga-H3P2O8, [^68Ga]Ga-hydrogen bisphosphate] was tested, and the “distribution in organs/excrement of infected model compared with inflammation model” value [1] was “similar”, the “mean SUV for MRSA-infected animal compared with animals infected with K. pneumoniae or P. aeruginosa” value [2] was “significantly higher” and the “SUV ± STD, Adipose” value ([3]; Adipose) was 0.34 ± 0.34 SUV. The “SUV ± STD, Bladder” value ([3]; Bladder) was 3.11 ± 3.0 SUV, the “SUV ± STD, Blood” value ([3]; Blood) was 1.83 ± 0.20 SUV and the “SUV ± STD, Bone” value ([3]; Bone) was 2.73 ± 1.12 SUV. The “SUV ± STD, Brain” value ([3]; Brain) was 0.81 ± 1.5 SUV, the “SUV ± STD, Cecum” value ([3]; Cecum) was 1.74 ± 0.55 SUV and the “SUV ± STD, Eye” value ([3]; Eye) was 3.86 ± 1.71 SUV. The “SUV ± STD, Feces” value ([3]; Feces) was 0.93 ± 0.43 SUV, the “SUV ± STD, Gut” value ([3]; Gut) was 1.78 ± 0.10 SUV and the “SUV ± STD, Heart” value ([3]; Heart) was 0.61 ± 0.14 SUV. The “SUV ± STD, Infected Thigh” value ([3]; Infected Thigh) was 1.12 ± 0.43 SUV, the “SUV ± STD, Kidney-1” value ([3]; Kidney-1) was 3.24 ± 1.19 SUV and the “SUV ± STD, Kidney-2” value ([3]; Kidney-2) was 3.28 ± 2.10 SUV. The “SUV ± STD, Liver” value ([3]; Liver) was 2.02 ± 0.89 SUV, the “SUV ± STD, Lung-1” value ([3]; Lung-1) was 2.13 ± 0.54 SUV and the “SUV ± STD, Lung-2” value ([3]; Lung-2) was 3.03 ± 0.53 SUV. For the same compound, the “SUV ± STD, Normal Thigh” value ([3]; Normal Thigh) was 0.25 ± 0.05 SUV, the “SUV ± STD, Skin” value ([3]; Skin) was 0.88 ± 0.63 SUV and the “SUV ± STD, Spleen” value ([3]; Spleen) was 0.80 ± 0.69 SUV. The “SUV ± STD, Stomach” value ([3]; Stomach) was 0.48 ± 0.14 SUV, the “mean SUV in infected tibia compared with [^68Ga]Ga-Citrate or [^18F]FDG” value ([4]; MRSA infected tibia, after 60 minutes post injection, PET image analysis (FIG. 26)) was “significantly higher mean SUV” and the “SUV (Average ± SD), Contralateral Tibia” value ([4]; n = 5, 15 min post-injection) was 0.76 ± 0.17 SUV. The “SUV (Average ± SD), Infected Tibia” value ([4]; n = 5, 15 min post-injection) was 1.82 ± 0.57 SUV, the “SUV (Average ± SD), Muscle” value ([4]; n = 5, 15 min post-injection) was 0.59 ± 0.14 SUV and the “SUV (Average ± SD), Contralateral Tibia” value ([4]; n = 5, 30 min post-injection) was 0.59 ± 0.12 SUV. For the same compound, the “SUV (Average ± SD), Infected Tibia” value ([4]; n = 5, 30 min post-injection) was 2.40 ± 0.49 SUV, the “SUV (Average ± SD), Muscle” value ([4]; n = 5, 30 min post-injection) was 0.58 ± 0.20 SUV and the “SUV (Average ± SD), Contralateral Tibia” value ([4]; n = 5, 60 min post-injection) was 0.60 ± 0.15 SUV. For the same compound, the “SUV (Average ± SD), Infected Tibia” value ([4]; n = 5, 60 min post-injection) was 2.87 ± 0.66 SUV, the “SUV (Average ± SD), Muscle” value ([4]; n = 5, 60 min post-injection) was 0.67 ± 0.18 SUV and the “SUV (Average ± SD), Contralateral Tibia” value ([4]; n = 5, 120 min post-injection) was 0.29 ± 0.18 SUV. For the same compound, the “SUV (Average ± SD), Infected Tibia” value ([4]; n = 5, 120 min post-injection) was 3.48 ± 0.25 SUV, the “SUV (Average ± SD), Muscle” value ([4]; n = 5, 120 min post-injection) was 0.76 ± 0.30 SUV and the “SUV ± STD, Adipose” value [5, 6] was 0.85 ± 0.64 SUV. For the same compound, the “SUV ± STD, Bladder” value [5, 6] was 3.11 ± 2.62 SUV, the “SUV ± STD, Blood” value [5, 6] was 2.09 ± 1.31 SUV and the “SUV ± STD, Bone” value [5, 6] was 2.70 ± 0.43 SUV. For the same compound, the “SUV ± STD, Brain” value [5, 6] was 0.05 ± 0.01 SUV, the “SUV ± STD, Cecum” value [5, 6] was 1.61 ± 1.29 SUV and the “SUV ± STD, Eye” value [5, 6] was 1.42 ± 1.91 SUV. The “SUV ± STD, Feces” value [5, 6] was 1.39 ± 1.10 SUV, the “SUV ± STD, Gut” value [5, 6] was 1.93 ± 0.40 SUV and the “SUV ± STD, Heart” value [5, 6] was 0.73 ± 0.07 SUV. For the same compound, the “SUV ± STD, Kidney-1” value [5, 6] was 0.92 ± 0.24 SUV, the “SUV ± STD, Kidney-2” value [5, 6] was 1.10 ± 0.09 SUV and the “SUV ± STD, Liver” value [5, 6] was 0.86 ± 0.08 SUV. The “SUV ± STD, Lung-1” value [5, 6] was 2.98 ± 1.02 SUV, the “SUV ± STD, Lung-2” value [5, 6] was 2.56 ± 1.82 SUV and the “SUV ± STD, Normal Thigh” value [5, 6] was 0.31 ± 0.18 SUV. For the same compound, the “SUV ± STD, Skin” value [5, 6] was 1.46 ± 0.41 SUV, the “SUV ± STD, Spleen” value [5, 6] was 0.73 ± 0.03 SUV and the “SUV ± STD, Stomach” value [5, 6] was 0.46 ± 0.07 SUV. The “SUV ± STD, Adipose” value ([5]; n = 4, 24 h post infection) was 1.13 ± 0.34 SUV, the “SUV ± STD, Bladder” value ([5]; n = 4, 24 h post infection) was 4.04 ± 5.22 SUV and the “SUV ± STD, Blood” value ([5]; n = 4, 24 h post infection) was 2.75 ± 0.39 SUV. For the same compound, the “SUV ± STD, Bone” value ([5]; n = 4, 24 h post infection) was 2.65 ± 1.75 SUV, the “SUV ± STD, Brain” value ([5]; n = 4, 24 h post infection) was 0.11 ± 0.02 SUV and the “SUV ± STD, Cecum” value ([5]; n = 4, 24 h post infection) was 1.59 ± 0.35 SUV. For the same compound, the “SUV ± STD, Eye” value ([5]; n = 4, 24 h post infection) was 1.39 ± 1.17 SUV, the “SUV ± STD, Feces” value ([5]; n = 4, 24 h post infection) was 0.71 ± 0.24 SUV and the “SUV ± STD, Gut” value ([5]; n = 4, 24 h post infection) was 1.72 ± 0.31 SUV. The “SUV ± STD, Heart” value ([5]; n = 4, 24 h post infection) was 1.04 ± 0.28 SUV, the “SUV ± STD, Kidney-1” value ([5]; n = 4, 24 h post infection) was 1.69 ± 0.66 SUV and the “SUV ± STD, Kidney-2” value ([5]; n = 4, 24 h post infection) was 1.44 ± 0.37 SUV. For the same compound, the “SUV ± STD, Liver” value ([5]; n = 4, 24 h post infection) was 1.89 ± 0.47 SUV, the “SUV ± STD, Lung-1” value ([5]; n = 4, 24 h post infection) was 1.52 ± 0.29 SUV and the “SUV ± STD, Lung-2” value ([5]; n = 4, 24 h post infection) was 1.46 ± 0.51 SUV. For the same compound, the “SUV ± STD, Normal Thigh” value ([5]; n = 4, 24 h post infection) was 0.33 ± 0.16 SUV, the “SUV ± STD, Skin” value ([5]; n = 4, 24 h post infection) was 1.08 ± 0.42 SUV and the “SUV ± STD, Spleen” value ([5]; n = 4, 24 h post infection) was 1.75 ± 0.56 SUV. For the same compound, the “SUV ± STD, Stomach” value ([5]; n = 4, 24 h post infection) was 0.34 ± 0.13 SUV.

Source: patent publication US20260115331A1, “PET IMAGING OF BACTERIAL INFECTION WITH A PET PROBE” (Mayo Foundation for Medical Education and Research, priority 2022, published 2026)
